Measured values published in patent publication EP0542497A1, “Heterocyclic compounds” (THE WELLCOME FOUNDATION LIMITED, priority 1991, dated 1993).
Where a name gives a salt, the structure may show the parent alone.

Experiments:
DHFR = target: T1, DHFR (Candida albicans, UniProt P22906); assay: biochemical; conditions: C.albicans enzyme; read-out: DHFR I50 C.albicans
T1 sequence (P22906 1-192): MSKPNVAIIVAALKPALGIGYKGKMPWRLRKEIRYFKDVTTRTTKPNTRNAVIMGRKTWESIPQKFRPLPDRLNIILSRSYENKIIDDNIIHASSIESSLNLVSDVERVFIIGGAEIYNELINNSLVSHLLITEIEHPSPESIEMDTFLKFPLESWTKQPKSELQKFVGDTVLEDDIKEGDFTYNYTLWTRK

[1] = target: T2, human dihydrofolate reductase (Homo sapiens, UniProt P00374); assay: DHFR I50, human enzyme; format: biochemical
T2 sequence (P00374 1-187): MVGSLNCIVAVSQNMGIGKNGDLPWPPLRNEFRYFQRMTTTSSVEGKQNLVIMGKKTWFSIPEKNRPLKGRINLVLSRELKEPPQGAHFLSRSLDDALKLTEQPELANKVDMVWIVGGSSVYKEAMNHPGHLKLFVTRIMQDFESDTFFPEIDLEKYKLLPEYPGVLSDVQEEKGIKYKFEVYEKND

CCRF-CEM T cells = assay: Cytotoxicity in cell culture (inhibition of cell growth); format: cell-based; conditions: human line, continuous exposure 72 hours
Experimental: (§1) The cytotoxic effects of various compounds were measured by the inhibition of mammalian cell growth in culture. Cell lines were grown in RPMI-1640 media prepared without folic acid but supplemented with 10nM calcium leucovorin, 25mM HEPES and 10% dialysed fetal bovine serum. In the case of human medulloblastoma cells (Daoy), the media (containing undialysed 10% fetal bovine serum) was pretreated with the enzyme thymidine phosphorylase (20 units/ml for 30 mins. at 37°C) to remove endogenous thymidine. Cells were seeded into 96 well microtiter plates (at densities determined to give log phase growth of control cells at the end of the assay) in 150µl of medium and grown at 37°C in a humidified incubator at 6% CO₂ for 24 hours. Compounds were prepared in media at four times the highest concentration to be tested; two-fold serial dilutions were made, and compounds were added to cells. […] The EC₅₀, defined as the concentration of compound required to reduce growth to 50% of the control, was determined from a plot of per cent inhibition versus log concentration. Cells were continuously exposed to inhibitor for 72 hours.

D98 bone marrow cells = assay: as above; format: cell-based; conditions: human line, continuous exposure 72 hours
Experimental: as §1

Daoy medulloblastoma = assay: as above; format: cell-based; conditions: human line, continuous exposure 72 hours, medium pretreated with thymidine phosphorylase
Experimental: as §1

[2] = tested on: Ehrlich ascites carcinoma; assay: as above; format: cell-based; conditions: mouse line, continuous exposure 72 hours
Experimental: as §1

GC3C1 colon carcinoma = assay: as above; format: cell-based; conditions: GC3/C1, human line, continuous exposure 72 hours
Experimental: as §1

[3] = tested on: HCT8 colon adenocarcinoma; assay: as above; format: cell-based; conditions: HCT-8, human line, continuous exposure 72 hours
Experimental: as §1

[4] = tested on: KB3-1 epidermoid carcinoma; assay: as above; format: cell-based; conditions: KB 3-1, human line, continuous exposure 72 hours
Experimental: as §1

[5] = tested on: L cells (derived from connective tissue); assay: as above; format: cell-based; conditions: mouse line, continuous exposure 72 hours
Experimental: as §1

[6] = tested on: MCF7 breast adenocarcinoma; assay: as above; format: cell-based; conditions: human line, continuous exposure 72 hours
Experimental: as §1

P388 lymphoid neoplasm = assay: as above; format: cell-based; conditions: mouse line, continuous exposure 72 hours
Experimental: as §1

S180 sarcoma = assay: as above; format: cell-based; conditions: S-180, mouse line, continuous exposure 72 hours
Experimental: as §1

[7] = Brain distribution in mice (brain and plasma concentrations by HPLC); format: in vivo; conditions: female CD1 mice, 30 or 40 minutes after dose; Compound 1 17mg/kg i.v., Compound 2 10mg/kg i.v., piritrexim 200mg/kg i.p., trimetrexate 100mg/kg i.p.; average of several experiments
Experimental: Female CD1 mice were dosed with Compound 1 (17mg/kg, i.v.), Compound 2 (10mg/kg, i.v.), piritrexim (200mg/kg,i.p.) or trimetrexate (100mg/kg, i.p.). Brain and plasma samples were collected 30 or 40 minutes later. The drugs were extracted from the samples, and their concentrations were determined using HPLC. The numbers represent the average of several experiments.

IC50 (DHFR) | IC50 [1] | SMILES | also measured
4 nM | 9 nM | Cc1cc2c3c(N)nc(N)nc3ccc2n1C(C)C [Compound 8a, 1,3-diamino-7-isopropyl-8-methyl-7H-pyrrolo(3,2-f)quinazoline] | 
4.1 nM | 3.3 nM | CCC(CC)n1c(COC)cc2c3c(N)nc(N)nc3ccc21 [Compound 9a, 1,3-diamino-7-(1-ethylpropyl)-8-(methoxymethyl)-7H-pyrrolo (3,2-f)quinazoline] | 
1.8 nM | 1.3 nM | CCCc1cc2c3c(N)nc(N)nc3ccc2n1C(CC)CC [Compound 9b, 1,3-diamino-7-(1-ethylpropyl)-8-propyl-7H-pyrrolo(3,2-f)quinazoline] | 
< 1 nM | < 1 nM | CC(C)n1c(C(C)(C)C)cc2c3c(N)nc(N)nc3ccc21 [Compound 9c, 1,3-diamino-8-tert-butyl-7-isopropyl-7H-pyrrolo(3,2-f)quinazoline] | 
< 1 nM | < 1 nM | CCC(CC)n1c(C(C)C)cc2c3c(N)nc(N)nc3ccc21 [Compound 9d, 1,3-diamino-7-(1-ethylpropyl)-8-isopropyl-7H-pyrrolo(3,2-f)quinazoline] | 
4.3 nM | < 1 nM | CCC(CC)n1c(CCCCl)cc2c3c(N)nc(N)nc3ccc21 [Compound 9f, 1,3-diamino-8-(3-chloropropyl)-7-(1-ethylpropyl)-7H-pyrrolo(3,2-f)quinazoline] | 
< 1 nM | < 1 nM | CCC(C)(C)n1c(C)cc2c3c(N)nc(N)nc3ccc21 [Compound 10b, 1,3-diamino-7-(1,1-dimethylpropyl)-8-methyl-7H-pyrrolo(3,2-f)quinazoline] | 

Further lines, the compound ahead of its results:

SMILES | IC50 (DHFR) | IC50 [1] | also measured
CCCC(CC)n1ccc2c3c(N)nc(N)nc3ccc21 (stereo not drawn) [Compound 3, 1,3-Diamino-7-(1-ethylbutyl)-7H-pyrrolo[3,2-f]quinazoline] | 2 nM | < 1 nM | 
CCCC(CCC)n1ccc2c3c(N)nc(N)nc3ccc21 [Compound 4, 1,3-Diamino-7-(1-propylbutyl)-7H-pyrrolo[3,2-f]quinazoline hydrochloride] | < 1 nM | < 2 nM | 
CCc1cc2c3c(N)nc(N)nc3ccc2n1C(CC)CC [Compound 6, 1,3-Diamino-8-ethyl-7-(1-ethylpropyl)-7H-pyrrolo(3,2-f)quinazoline] | < 1 nM | < 1 nM | 
CCC(C)n1ccc2c3c(N)nc(N)nc3ccc21 (stereo not drawn) [Compound 7a, 1,3-diamino-7-sec-butyl-7H-pyrrolo(3,2-f)quinazoline] | 10 nM | 18 nM | 
CCCC(C)n1ccc2c3c(N)nc(N)nc3ccc21 (stereo not drawn) [Compound 7b, 1,3-diamino-7-(1-methylbutyl)-7H-pyrrolo(3,2-f)quinazoline] | 7 nM | 11 nM | 
CCC(C(C)C)n1ccc2c3c(N)nc(N)nc3ccc21 (stereo not drawn) [Compound 7c, 1,3-diamino-7-(1-ethyl-2-methylpropyl)-7H-pyrrolo(3,2-f)quinazoline] | 3 nM | < 2 nM | 
CC(C)n1ccc2c3c(N)nc(N)nc3ccc21 [Compound 7d, 1,3-diamino-7-isopropyl-7H-pyrrolo(3,2-f)quinazoline] | 35 nM | 48 nM | 
COCC(COC)n1ccc2c3c(N)nc(N)nc3ccc21 [Compound 7e, 1,3-diamino-7-(2-methoxy-1-methoxymethyl)ethyl-7H-pyrrolo(3,2-f)quinazoline] | 8.9 nM | 8.4 nM | 
Nc1nc(N)c2c(ccc3c2ccn3C2CCCCC2)n1 [Compound 7f, 1,3-diamino-7-cyclohexyl-7H-pyrrolo(3,2-f)quinazoline] | 3 nM | 44 nM | 
Nc1nc(N)c2c(ccc3c2ccn3C2C=CCCC2)n1 (stereo not drawn) [Compound 7g, 1,3-diamino-7-(2-cyclohexen-1-yl)-7H-pyrrolo(3,2-f)quinazoline] | 6 nM | 33 nM | 
CCc1cc2c3c(N)nc(N)nc3ccc2n1C(C)CC (stereo not drawn) [Compound 9e, 1,3-diamino-8-ethyl-7-sec-butyl-7H-pyrrolo(3,2-f)quinazoline] | < 1 nM | < 1 nM | 
CCCCc1cc2c3c(N)nc(N)nc3ccc2n1C(C)(C)C [Compound 10a, 1,3-diamino-8-butyl-7-tert-butyl-7H-pyrrolo(3,2-f)quinazoline] | 7 nM |  | 
CN(Cc1cnc2nc(N)nc(N)c2n1)c1ccc(C(=O)N[C@@H](CCC(=O)O)C(=O)O)cc1 [Methotrexate, N-[4[[(2,4-diamino-6-pteridinyl)methyl]methylamino]benzoyl]-L-glutamic acid, reference compound] |  |  | EC50 (CCRF-CEM T cells): 1.9 nM; EC50 (D98 bone marrow cells): 47 nM; EC50 (Daoy medulloblastoma): 21 nM; EC50 [2]: 8.5 nM; EC50 (GC3C1 colon carcinoma): 12 nM; EC50 [3]: 7.3 nM; EC50 [4]: 20 nM; EC50 [5]: 75 nM; EC50 [6]: 12 nM; EC50 (P388 lymphoid neoplasm): 2.7 nM; EC50 (S180 sarcoma): 18.7 nM
COc1ccc(OC)c(Cc2cnc3nc(N)nc(N)c3c2C)c1 [Piritrexim, 2,4-diamino-6(2,5-dimethoxybenzyl)5-methylpyrido(2,3-d)pyrimidine, reference compound] |  |  | EC50 (CCRF-CEM T cells): 15 nM; EC50 (D98 bone marrow cells): 195 nM; EC50 (Daoy medulloblastoma): 48 nM; EC50 [2]: 4 nM; EC50 (GC3C1 colon carcinoma): 7.6 nM; EC50 [3]: 1.3 nM; EC50 [4]: 340 nM; EC50 [5]: 5.2 nM; EC50 [6]: 175 nM; EC50 (P388 lymphoid neoplasm): 23 nM; EC50 (S180 sarcoma): 10 nM; Tissue concentration brain [7]: 2.3 µg/g; Tissue concentration plasma [7]: 4.2 µg/mL
COc1cc(NCc2ccc3nc(N)nc(N)c3c2C)cc(OC)c1OC [Trimetrexate, 5-methyl-6-[[(3,4,5-trimethoxyphenyl)amino]methyl]-2,4-quinazolinediamine, reference compound] |  |  | Tissue concentration brain [7]: 1.4 µg/g; Tissue concentration plasma [7]: 13 µg/mL
